For the experiment, the target named is CRAF (Homo sapiens, UniProt P04049, Y340D/Y341D).

Molecules are shown by their SMILES.

On to `CCCS(=O)(=O)Nc1ccc(F)c(C(=O)c2c[nH]c3ncc(Cl)cc23)c1F` [PLX4720], for which the “X-ray crystal structure, 2.91 Å” value was “The structure reveals clear electron density for both PLX4720 and CH5126766”.

The values above are taken from PMC12363950 (bioRxiv, 2025).
